Assay results as given in the supplement of paper PMC10307832.

Tests used:
Experiment in all cases: relative viability (nuclei count vs DMSO), 5 days (fraction); higher = more cells survive
VX-702 + AZD7762 = compound: NC(=O)c1ccc(N(C(N)=O)c2c(F)cccc2F)nc1-c1ccc(F)cc1F [VX-702] + NC(=O)Nc1cc(-c2cccc(F)c2)sc1C(=O)N[C@H]1CCCNC1 [AZD7762] (partner 0.2 µM)
Outline: (§1)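 Relative viability was taken as the ratio of nuclei in treated wells to nuclei in vehicle wells. Lung cancer cell lines in 1536-well plates received compounds by pin tool one day after seeding, either one drug alone or a fixed anchor-drug dose plus five library-drug doses (not always all listed) in √10 steps. Nuclei were counted on 4× images after 5 days of treatment, and values are medians of duplicate plates.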

VX-702 + OSI-027 = compound: NC(=O)c1ccc(N(C(N)=O)c2c(F)cccc2F)nc1-c1ccc(F)cc1F [VX-702] + COc1cccc2cc(-c3nc([C@H]4CC[C@H](C(=O)O)CC4)n4ncnc(N)c34)[nH]c12 [OSI-027] (partner 0.5 µM)
Outline: as §1

Dabrafenib + Luminespib = compound: CC(C)(C)c1nc(-c2cccc(NS(=O)(=O)c3c(F)cccc3F)c2F)c(-c2ccnc(N)n2)s1 [Dabrafenib] + CCNC(=O)c1noc(-c2cc(C(C)C)c(O)cc2O)c1-c1ccc(CN2CCOCC2)cc1 [Luminespib] (partner 0.01 µM)
Outline: as §1

Dabrafenib + Pictilisib = compound: CC(C)(C)c1nc(-c2cccc(NS(=O)(=O)c3c(F)cccc3F)c2F)c(-c2ccnc(N)n2)s1 [Dabrafenib] + CS(=O)(=O)N1CCN(Cc2cc3nc(-c4cccc5[nH]ncc45)nc(N4CCOCC4)c3s2)CC1 [Pictilisib] (partner 1 µM)
Outline: as §1

Row | Cell Line | relative viability (VX-702 + AZD7762; first compound 0.02 µM) | relative viability (VX-702 + AZD7762; first compound 0.2 µM) | relative viability (VX-702 + AZD7762; first compound 0.6325 µM) | relative viability (VX-702 + AZD7762; first compound 2 µM) | relative viability (VX-702 + OSI-027; first compound 0.02 µM) | relative viability (VX-702 + OSI-027; first compound 0.2 µM) | relative viability (VX-702 + OSI-027; first compound 0.6325 µM) | relative viability (VX-702 + OSI-027; first compound 2 µM) | relative viability (Dabrafenib + Luminespib; first compound 0.003 µM) | relative viability (Dabrafenib + Luminespib; first compound 0.009487 µM) | relative viability (Dabrafenib + Luminespib; first compound 0.03 µM) | relative viability (Dabrafenib + Luminespib; first compound 0.09487 µM) | relative viability (Dabrafenib + Luminespib; first compound 0.3 µM) | relative viability (Dabrafenib + Pictilisib; first compound 0.003 µM) | relative viability (Dabrafenib + Pictilisib; first compound 0.009487 µM) | relative viability (Dabrafenib + Pictilisib; first compound 0.03 µM) | relative viability (Dabrafenib + Pictilisib; first compound 0.09487 µM) | relative viability (Dabrafenib + Pictilisib; first compound 0.3 µM)
1 | HCC-15 | 1.31 | 1.18 | 1.32 | 1.19 | 0.659 | 0.661 | 0.69 | 0.702 | 0.379 | 0.634 | 0.285 | 0.0381 | 0.52 | 0.595 | 0.851 | 0.654 | 0.797 | 0.725
2 | LC-2-ad | 0.837 | 0.854 | 0.892 | 0.973 | 0.844 | 0.814 | 0.999 | 0.949 |  | 1.16 | 1.27 | 1.04 | 0.947 | 0.489 | 0.137 | 0.408 | 0.455 | 0.497
3 | LOU-NH91 | 0.766 | 0.753 | 0.721 | 0.695 | 0.767 | 0.734 | 0.751 | 0.528 | 0.262 | 0.36 | 0.28 | 0.343 | 0.294 |  | 0.549 | 0.555 | 0.548 | 0.566
4 | NCI-H1355 | 0.867 | 0.672 | 0.83 | 0.813 | 0.419 | 0.427 | 0.371 | 0.405 |  | 0.83 | 0.611 | 0.628 | 0.69 |  | 0.493 | 0.328 |  | 0.362
5 | LCLC-97TM1 | 0.356 | 0.175 | 0.301 | 0.301 | 0.424 | 0.595 | 0.37 | 0.404 | 0.764 | 0.745 | 0.584 | 0.756 | 0.775 |  | 0.206 | 0.213 |  | 0.149
6 | LCLC-103H | 0.76 | 0.816 | 0.825 | 0.873 | 0.49 | 0.485 | 0.417 | 0.458 | 0.971 | 1.01 | 0.923 | 0.897 | 1.01 | 0.556 | 0.657 | 0.426 | 0.721 | 0.71
7 | NCI-H1792 | 0.635 | 0.669 | 0.707 | 0.706 | 0.667 | 0.669 | 0.682 | 0.683 |  | 0.474 | 0.412 | 0.423 | 0.538 |  | 0.307 | 0.237 | 0.311 | 0.242
8 | LK-2 | 0.312 | 0.234 | 0.343 | 0.292 | 0.21 | 0.211 | 0.167 | 0.183 | 0.185 | 0.187 |  | 0.153 | 0.157 | 0.552 | 0.614 |  | 0.587 | 0.748
9 | RERF-LC-KJ | 1.25 | 0.963 | 1.11 | 1.09 | 0.608 | 0.547 | 0.57 | 0.534 | 1.31 | 1.3 | 1.26 | 1.31 | 1.25 | 0.575 | 0.592 | 0.455 | 0.616 | 0.748
10 | ChaGo-K-1 | 0.958 | 0.879 | 0.896 | 0.879 | 0.641 | 0.624 | 0.567 | 0.566 | 0.57 | 0.647 | 0.517 | 0.529 | 0.47 |  | 0.591 | 0.749 | 0.721 | 0.933
11 | NCI-H1395 | 0.419 | 0.427 | 0.411 | 0.408 | 0.725 | 0.642 | 0.663 | 0.677 | 0.663 | 0.755 | 0.661 | 0.657 | 0.567 |  | 0.652 | 0.673 | 0.542 | 0.567
12 | LU99A | 0.35 | 0.372 | 0.368 | 0.234 | 0.339 | 0.323 | 0.312 | 0.283 | 0.203 | 0.212 | 0.225 | 0.3 | 0.29 | 0.336 | 0.268 | 0.342 | 0.299 | 0.266
13 | NCI-H322M | 0.544 | 0.558 | 0.537 | 0.499 | 0.567 | 0.517 | 0.566 | 0.62 |  | 1.05 | 0.692 | 0.856 | 0.803 |  | 0.539 |  | 0.542 | 0.489
14 | NCI-H358 | 0.542 | 0.461 | 0.45 | 0.572 | 0.867 | 0.845 | 0.711 | 0.794 |  | 0.396 | 0.35 |  | 0.237 |  | 0.307 | 0.339 | 0.405 | 0.282
15 | EMC-BAC-2 | 1.11 | 1.08 | 1.16 | 1.08 | 0.372 | 0.404 | 0.355 | 0.313 | 1.16 | 1.23 | 1 | 1.13 | 1.28 | 0.52 | 0.434 | 0.389 | 0.585 | 0.623
16 | NCI-H2085 | 1.04 | 1.01 | 1.06 | 1.03 | 0.87 | 0.636 | 0.726 | 0.627 | 0.402 | 0.484 | 0.453 | 0.428 | 0.51 | 0.381 | 0.481 | 0.328 | 0.452 | 0.462
17 | NCI-H441 | 1.25 | 1.08 | 1.13 | 1.02 | 0.564 | 0.547 | 0.5 | 0.544 |  | 0.317 | 0.389 | 0.461 | 0.347 |  | 0.54 | 0.406 | 0.374 | 0.401
